Data on three compounds can be found in patent US7662973B2, “Fluorescent detection method and reagent” (GE Healthcare UK Limited, priority 2000, dated 2010).

In assay [1] the target is T1, Nitroreductase expressing cells (Escherichia coli, UniProt P38489).
T1 construct: expressed in transfected cells
The assay is described as follows: Cellular nitroreductase activity in living cells with cell permeable substrates (plate reader). The settings on record: 37° C. The format is cell-based. On the procedure: Cy3Qee (Formula IIIa) and Cy5Qee (Formula IIIb) were evaluated as cell permeable fluorescence substrates for nitroreductase measurement in living cells. Nitroreductase expressing cells and control cells were cultured at 10,000 cells/well in 96 well plates in tissue culture medium containing 10% foetal calf serum and incubated at 37° C. in the presence of 10 μM Cy3Qee or 30 μM Cy5Qee.

In assay [2] the target is T1, Nitroreductase expressing cells. The assay is described as follows: Cellular nitroreductase activity in living cells by flow cytometry. The format is cell-based. Conditions: 30 μM Cy3Qee, 2 hours 37° C.; 488 nm laser excitation, 585/42 nm emission. On the procedure:
Nitroreductase expressing cells and control cells were incubated for 2 hours at 37° C. in tissue culture media containing 30 μM Cy3Qee. Following incubation cells were washed with phosphate buffered saline and trypsinised to produce cell suspensions for flow cytometry.
Cells were analysed using a FACScalibur flow cytometer (Becton Dickinson) using 488 nm laser excitation and a 585/42 nm emission filter. Results (FIG. 12) show a significant increase in fluorescence in nitroreductase expressing cells (mean fluorescence 169.9) compared with control cells (mean fluorescence 18.2).
Background: A flow cytometer gives signals particle by particle.

A further assay concerns SKOV cells lysate. The assay is described as follows: In vitro evaluation of cassette: ester linker cleavage by cell lysate. The settings on record: 20 minutes 37° C., PBS pH 7.4, 1 mM NADH; 450 nm excitation. The format is cell-based. On the procedure: (§1) Cy5Q-Cascade blue cassette (0.8 mM in acetate buffer pH 5.0) was diluted to […] in PBS pH 7.4 containing 1 mM NADH. A cell lysate was prepared from 2×10^7 SKOV cells by re-suspension of scraped cells in 5 ml PBS at 4° C. and repeated passage through a 25 gauge syringe needle. Aliquots (1 ml) of Cy5Q-Cascade blue were incubated with 500 μl of cell lysate or PBS for 20 minutes at 37° C. Following incubation 100 μl of a 1 ng/μl solution of E. coli B nitroreductase was added to one sample and incubation continued for 5 minutes. Aliquots ([…]) were then dispensed in quadruplicate from each sample to a 96 well plate for measurement of fluorescence on a Cytofluor plate reader using 450 nm excitation/530 nm emission filters for cascade blue and 610 nm excitation/670 nm emission for Cy5.

For a further assay, the target named is E. coli B nitroreductase (Escherichia coli, UniProt P38489). The assay is described as follows: In vitro evaluation of cassette: reduction by nitroreductase. The format is biochemical. The settings on record: after lysate incubation, 5 minutes with nitroreductase; 610 nm excitation. The method, then: as §1
Sequence of E. coli B nitroreductase (P38489 whole entry): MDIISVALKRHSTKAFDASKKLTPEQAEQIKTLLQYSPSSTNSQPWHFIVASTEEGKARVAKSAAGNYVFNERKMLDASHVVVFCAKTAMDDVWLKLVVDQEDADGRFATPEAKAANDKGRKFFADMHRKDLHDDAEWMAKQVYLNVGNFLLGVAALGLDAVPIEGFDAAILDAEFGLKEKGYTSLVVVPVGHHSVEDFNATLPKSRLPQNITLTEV
Where [3] appears, read: 10 μM Cy3Qee, 530/25 nm excitation, 580/50 nm emission.
[4] abbreviates: 30 μM Cy5Qee, 610/20 nm excitation, 670/40 nm emission.

Structures can show the parent of a compound that is named as a salt.

T1 sequence (P38489 whole entry): as above

As for `CCOC(=O)Cc1ccc2c(c1)C(C)(C)C(/C=C/C=C1/N(C)c3ccc(CC(=O)OCC)cc3C1(C)C)=[N+]2Cc1cc([N+](=O)[O-])cc([N+](=O)[O-])c1` [Cy3Qee], in assay [1] (setting [3]), the “fluorescence in control cells” value is given as “minimal changes in fluorescence” and the “fluorescence in nitroreductase expressing cells” value is on record as “significant time dependent increase in fluorescence”. In assay [2], the “mean fluorescence, control cells” value was determined as 18.2 and the “mean fluorescence, nitroreductase expressing cells” value is listed as 169.9.

Regarding `CC1(C)C(/C=C/C=C/C=C2/N(Cc3cc([N+](=O)[O-])cc([N+](=O)[O-])c3)c3ccc(S(=O)(=O)O)cc3C2(C)C)=[N+](CCCCCC(=O)Oc2cc(S(=O)(=O)O)c3ccc4c(S(=O)(=O)[O-])cc(S(=O)(=O)O)c5ccc2c3c45)c2ccc(S(=O)(=O)O)cc21` [Cy5Q-Cascade blue cassette], the “fluorescence emission at 530 nm (Cascade Blue) in the presence of cell lysate” value in the assay on SKOV cells lysate is recorded as “increase of fluorescence emission”. Moreover, the “fluorescence emission at 670 nm (Cy5) when nitroreductase enzyme is present” value on E. coli B nitroreductase is recorded as “increase in fluorescence emission”.

Turning to `CCOC(=O)Cc1ccc2c(c1)C(C)(C)C(/C=C/C=C/C=C1/N(C)c3ccc(CC(=O)OCC)cc3C1(C)C)=[N+]2Cc1cc([N+](=O)[O-])cc([N+](=O)[O-])c1` [Cy5Qee, 1-(3,5-dinitrobenzyl)-5-(2-ethoxy-2-oxoethyl)-2-{(1E,3E)-5-[6-(2-ethoxy-2-oxoethyl)-1,1,3-trimethyl-1,3-dihydro-2H-indol-2-ylidene]-1,3-pentadienyl}-3,3-dimethyl-3H-indoluim Salt], in assay [1] (setting [4]), the “fluorescence in control cells” value is on record as “minimal changes in fluorescence” and the “fluorescence in nitroreductase expressing cells” value is given as “significant time dependent increase in fluorescence”.
